Source: patent US10597388B2, “Pyridazinone herbicides” (FMC CORPORATION, priority 2014, dated 2020)

Experiments:
Assay in all cases: Test D controlled growth environment herbicide test, pre- and postemergence
Format in all cases: in vivo
[1] = system: lambsquarters (Chenopodium album)
In short: (§1)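 Species sown in silt loam and sprayed preemergence, or grown in peat-based medium to 2–18 cm (1- to 4-leaf stage) and sprayed postemergence, with compounds in non-phytotoxic solvent plus surfactant. Visual injury scored versus controls after 14–21 d in a controlled environment, 0 (no effect) to 100 (complete control).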

[2] = system: deadnettle (henbit deadnettle, Lamium amplexicaule)
In short: as §1

[3] = system: field poppy (Papaver rhoeas)
In short: as §1

kochia (Kochia scoparia) = system: kochia (Kochia scoparia)
In short: as §1

[4] = system: chickweed (common chickweed, Stellaria media)
In short: as §1

[5] = system: barley, winter (winter barley, Hordeum vulgare)
In short: as §1

[6] = system: galium (catchweed bedstraw, Galium aparine)
In short: as §1

[7] = system: speedwell (bird's-eye speedwell, Veronica persica)
In short: as §1

[8] = system: mustard, wild (wild mustard, Sinapis arvensis)
In short: as §1

[9] = system: wheat, winter (winter wheat, Triticum aestivum)
In short: as §1

[10] = system: Russian thistle (Salsola kali)
In short: as §1

[11] = system: windgrass (Apera spica-venti)
In short: as §1

[12] = system: bromegrass, downy (downy bromegrass, Bromus tectorum)
In short: as §1

[13] = Postemergence, 31 g ai/ha, scale 0 to 100 (0 no effect, 100 complete control)
[14] = Postemergence, 125 g ai/ha, visual rating on scale 0 (no effect) to 100 (complete control), 14 to 21 d
[15] = Postemergence, 250 g ai/ha, scale 0 to 100 (0 no effect, 100 complete control)
[16] = Preemergence, 62 g ai/ha, scale 0 to 100 (0 no effect, 100 complete control)
[17] = Preemergence, 125 g ai/ha, scale 0 to 100 (0 no effect, 100 complete control)
[18] = Preemergence, 250 g ai/ha, scale 0 to 100 (0 no effect, 100 complete control)
[19] = postemergence, 62 g ai/ha, scale 0 to 100, 0 no effect, 100 complete control

Cc1ccc2ccccc2c1-c1c(O)c(C)nn(C)c1=O [Compound 59]
Lambsquarters plant response rating [1, 13]: 90
Plant response rating, Lambsquarters [1, 14]: 90
Plant response rating, Lambsquarters [1, 15]: 95
Plant response rating (scale of 0 to 100), Lambsquarters ([1]; Preemergence, 31 g ai/ha): 95
Plant response rating, Lambsquarters [1, 16]: 100
Plant response rating, Lambsquarters [1, 17]: 100
Plant response rating, Lambsquarters [1, 18]: 100
Plant response rating, Lambsquarters [1, 19]: 85
Deadnettle plant response rating [2, 13]: 80
Plant response rating, Deadnettle [2, 14]: 90
Plant response rating, Deadnettle [2, 15]: 100
Plant response rating (scale of 0 to 100), Deadnettle ([2]; Preemergence, 31 g ai/ha): 50
Plant response rating, Deadnettle [2, 16]: 90
Plant response rating, Deadnettle [2, 17]: 90
Plant response rating, Deadnettle [2, 18]: 100
Plant response rating, Deadnettle [2, 19]: 80
Field Poppy plant response rating [3, 13]: 70
Plant response rating, Field Poppy [3, 14]: 95
Plant response rating, Field Poppy [3, 15]: 100
Plant response rating (scale of 0 to 100), Field Poppy ([3]; Preemergence, 31 g ai/ha): 100
Plant response rating, Field Poppy [3, 16]: 100
Plant response rating, Field Poppy [3, 17]: 100
Plant response rating, Field Poppy [3, 18]: 100
Plant response rating, Field Poppy [3, 19]: 75
Kochia plant response rating (kochia (Kochia scoparia); [13]): 95
Plant response rating, Kochia (kochia (Kochia scoparia); [14]): 95
Plant response rating, Kochia (kochia (Kochia scoparia); [15]): 100
Plant response rating (scale of 0 to 100), Kochia (kochia (Kochia scoparia); Preemergence, 31 g ai/ha): 20
Plant response rating, Kochia (kochia (Kochia scoparia); [16]): 60
Plant response rating, Kochia (kochia (Kochia scoparia); [17]): 95
Plant response rating, Kochia (kochia (Kochia scoparia); [18]): 100
Plant response rating, Kochia (kochia (Kochia scoparia); [19]): 95
Chickweed plant response rating [4, 13]: 100
Plant response rating, Chickweed [4, 14]: 100
Plant response rating, Chickweed [4, 15]: 100
Plant response rating (scale of 0 to 100), Chickweed ([4]; Preemergence, 31 g ai/ha): 100
Plant response rating, Chickweed [4, 16]: 100
Plant response rating, Chickweed [4, 17]: 100
Plant response rating, Chickweed [4, 18]: 100
Plant response rating, Chickweed [4, 19]: 98
Barley, Winter plant response rating [5, 13]: 20
Plant response rating, Barley, Winter [5, 14]: 45
Plant response rating, Barley, Winter [5, 15]: 60
Plant response rating (scale of 0 to 100), Barley, Winter ([5]; Preemergence, 31 g ai/ha): 15
Plant response rating, Barley, Winter [5, 16]: 25
Plant response rating, Barley, Winter [5, 17]: 40
Plant response rating, Barley, Winter [5, 18]: 45
Plant response rating, Barley, Winter [5, 19]: 30
Galium plant response rating [6, 13]: 100
Plant response rating, Galium [6, 14]: 100
Plant response rating, Galium [6, 15]: 100
Plant response rating (scale of 0 to 100), Galium ([6]; Preemergence, 31 g ai/ha): 95
Plant response rating, Galium [6, 16]: 95
Plant response rating, Galium [6, 17]: 100
Plant response rating, Galium [6, 18]: 100
Plant response rating, Galium [6, 19]: 100
Speedwell plant response rating [7, 13]: 65
Plant response rating, Speedwell [7, 14]: 100
Plant response rating, Speedwell [7, 15]: 100
Plant response rating (scale of 0 to 100), Speedwell ([7]; Preemergence, 31 g ai/ha): 100
Plant response rating, Speedwell [7, 16]: 100
Plant response rating, Speedwell [7, 17]: 100
Plant response rating, Speedwell [7, 18]: 100
Plant response rating, Speedwell [7, 19]: 100
Mustard, Wild plant response rating [8, 13]: 90
Plant response rating, Mustard, Wild [8, 14]: 100
Plant response rating, Mustard, Wild [8, 15]: 100
Plant response rating (scale of 0 to 100), Mustard, Wild ([8]; Preemergence, 31 g ai/ha): 95
Plant response rating, Mustard, Wild [8, 16]: 95
Plant response rating, Mustard, Wild [8, 17]: 100
Plant response rating, Mustard, Wild [8, 18]: 100
Plant response rating, Mustard, Wild [8, 19]: 100
Wheat, Winter plant response rating [9, 13]: 35
Plant response rating, Wheat, Winter [9, 14]: 55
Plant response rating, Wheat, Winter [9, 15]: 80
Plant response rating (scale of 0 to 100), Wheat, Winter ([9]; Preemergence, 31 g ai/ha): 10
Plant response rating, Wheat, Winter [9, 16]: 35
Plant response rating, Wheat, Winter [9, 17]: 70
Plant response rating, Wheat, Winter [9, 18]: 80
Plant response rating, Wheat, Winter [9, 19]: 40
Russian Thistle plant response rating [10, 13]: 80
Plant response rating, Russian Thistle [10, 14]: 85
Plant response rating, Russian Thistle [10, 15]: 85
Plant response rating (scale of 0 to 100), Russian Thistle ([10]; Preemergence, 31 g ai/ha): 40
Plant response rating, Russian Thistle [10, 16]: 50
Plant response rating, Russian Thistle [10, 17]: 80
Plant response rating, Russian Thistle [10, 18]: 90
Plant response rating, Russian Thistle [10, 19]: 80
Windgrass plant response rating [11, 13]: 75
Plant response rating, Windgrass [11, 14]: 80
Plant response rating, Windgrass [11, 15]: 85
Plant response rating (scale of 0 to 100), Windgrass ([11]; Preemergence, 31 g ai/ha): 85
Plant response rating, Windgrass [11, 16]: 85
Plant response rating, Windgrass [11, 17]: 100
Plant response rating, Windgrass [11, 18]: 100
Plant response rating, Windgrass [11, 19]: 80
Bromegrass, Downy plant response rating [12, 13]: 35
Plant response rating, Bromegrass, Downy [12, 14]: 70
Plant response rating, Bromegrass, Downy [12, 15]: 85
Plant response rating (scale of 0 to 100), Bromegrass, Downy ([12]; Preemergence, 31 g ai/ha): 75
Plant response rating, Bromegrass, Downy [12, 16]: 85
Plant response rating, Bromegrass, Downy [12, 17]: 90
Plant response rating, Bromegrass, Downy [12, 18]: 95
Plant response rating, Bromegrass, Downy [12, 19]: 70
